Test results as given in patent US11464749B2, “Bismuth-thiol compositions and methods of use” (Microbion Corporation, priority 2018, dated 2022).
Converted amounts (≈) assume the structure as drawn. “And” between values parts separate entries of the source, which are not always exact repeats. Equal entries are not always repeated. Where two headings read alike, the source gives them in different places.

Key:
Acinetobacter baumannii = experiment: Broth microdilution MIC (Example 11); settings: Acinetobacter baumannii
E. faecalis = experiment: Broth microdilution MIC (Example 11); settings: Enterococcus faecalis, VRE, VRE Lev^R Cip^R Ery^R
P. aeruginosa = experiment: FIC checkerboard assay; assay type: cell-based; settings: for MIC: Pseudomonas aeruginosa
Enterobacter cloacae = experiment: Broth microdilution MIC (Example 11); settings: ATCCBAA2468
B. cepacia = experiment: FIC checkerboard assay; assay type: cell-based; settings: Burkholderia cepacia, Meropenem alone (checkerboard with BisEDT), read-out: Drug B MIC
Pseudomonas aeruginosa = experiment: Broth microdilution MIC (Example 11); settings: Pseudomonas aeruginosa
Klebsiella pneumoniae = experiment: Broth microdilution MIC (Example 11)
S. pneumoniae = experiment: Broth microdilution MIC (Example 11); settings: Streptococcus pneumoniae
S. agalactiae = experiment: Broth microdilution MIC (Example 11); settings: Streptococcus agalactiae
Escherichia coli = experiment: Broth microdilution MIC (Example 11)
B. cenocepacia = experiment: FIC checkerboard assay; assay type: cell-based; settings: for FICB: FIC of Meropenem in combination with BisEDT; for FICB / MICB: per checkerboard row; for MICB: MIC of Meropenem in combination with BisEDT; for MIC: Burkholderia cenocepacia, Meropenem alone (panel with BisEDT), read-out: Drug B MIC

C[C@@H](O)[C@H]1C(=O)N2C(C(=O)O)=C(S[C@@H]3CN[C@H](C(=O)N(C)C)C3)[C@H](C)[C@H]12 [Meropenem, reference compound]
MIC (Acinetobacter baumannii; A. baumannii MMX 2592, MDR, Lev^R, Cip^R, MEM^R, CAZ^R, Gm^R): 64 µg/mL (≈ 167 µM) | MIC (Acinetobacter baumannii; A. baumannii MMX 2593, MDR, Lev^R, Cip^R, MEM^R, CAZ^R, Gm^R): 64 µg/mL (≈ 167 µM) | MIC (Acinetobacter baumannii; A. baumannii MMX 3372, MDR, Cip^R, MEM^I, CAZ^I): 4 µg/mL (≈ 10.4 µM) | MIC (Acinetobacter baumannii; A. baumannii MMX 3373, Sensitive): 0.5 µg/mL (≈ 1.3 µM) | MIC (Acinetobacter baumannii; NCTC13304, A. baumannii MMX 4651 (NCTC 13304), MDR, OXA-27, Lev^R, Cip^R, MEM^R, CAZ^R, Gm^I): 64 µg/mL (≈ 167 µM) | MIC (E. faecalis; E. faecalis MMX 8960): 8 µg/mL (≈ 20.9 µM) | MIC (E. faecalis; E. faecalis MMX 8961): 8 µg/mL (≈ 20.9 µM) | MIC (E. faecalis; E. faecalis MMX 8962): 2 µg/mL (≈ 5.22 µM) | MICB (Drug B in combination) (P. aeruginosa; P. aeruginosa 6322, with BisEDT, checkerboard rows C-G): 16 µg/mL | MIC (P. aeruginosa; P. aeruginosa 6322, checkerboard panel BisEDT/Meropenem, read-out: Drug B MIC (alone)): 16 µg/mL | MIC (P. aeruginosa; P. aeruginosa 6977, Meropenem alone (checkerboard with BisEDT), read-out: Drug B MIC): 8 µg/mL | MIC (P. aeruginosa; P. aeruginosa 7745, Meropenem alone (checkerboard with BisEDT), read-out: Drug B MIC): 16 µg/mL | MIC (P. aeruginosa; P. aeruginosa 8798, Meropenem alone (checkerboard with BisEDT), read-out: Drug B MIC): 32 µg/mL | MIC (P. aeruginosa; P. aeruginosa 9108, Meropenem alone (checkerboard with BisEDT), read-out: Drug B MIC): 1 µg/mL | MIC (Enterobacter cloacae): > 64 µg/mL | MIC (B. cepacia; B. cepacia 546): 4 µg/mL | MIC (B. cepacia; B. cepacia 1793): 4 µg/mL | MIC (Pseudomonas aeruginosa; ATCC27853, P. aeruginosa MMX 103 (ATCC 27853), QC): 0.5 µg/mL (≈ 1.3 µM) | MIC (Pseudomonas aeruginosa; P. aeruginosa MMX 1381, MDR, Lev^R, Cip^R, MEM^R, CAZ^R): 16 µg/mL (≈ 41.7 µM) | MIC (Pseudomonas aeruginosa; P. aeruginosa MMX 2562, MDR, Lev^R, Cip^R, MEM^R, CAZ^R): 32 µg/mL (≈ 83.4 µM) | MIC (Pseudomonas aeruginosa; P. aeruginosa MMX 3991, MDR, Lev^R, Cip^R, MEM^R, CAZ^R): 16 µg/mL (≈ 41.7 µM) | MIC (Pseudomonas aeruginosa; P. aeruginosa MMX 4654, IMP-7, Lev^R, Cip^R, MEM^R, CAZ^R): > 64 µg/mL | MIC (Pseudomonas aeruginosa; P. aeruginosa MMX 4697, VIM-2, Lev^R, Cip^R, MEM^R, CAZ^R): 8 µg/mL (≈ 20.9 µM) | MIC (Klebsiella pneumoniae; K. pneumoniae MMX 4622, KPC-2, MEM^R, CAZ^R): > 64 µg/mL | MIC (Klebsiella pneumoniae; K. pneumoniae MMX 4623, KPC-2, MEM^R, CAZ^R, GM^R): > 64 µg/mL | MIC (Klebsiella pneumoniae; K. pneumoniae MMX 4653, KPC-3, Lev^R, MEM^R, CAZ^R): > 64 µg/mL | MIC (Klebsiella pneumoniae; K. pneumoniae MMX 4683, KPC-2, Lev^R, MEM^R, CAZ^R): 32 µg/mL (≈ 83.4 µM) | MIC (Klebsiella pneumoniae; K. pneumoniae MMX 4684, ESBL, MEM^R): 8 µg/mL (≈ 20.9 µM) | MIC (Klebsiella pneumoniae; K. pneumoniae MMX 4685, ESBL, Lev^R, MEM^R, CAZ^R): 4 µg/mL (≈ 10.4 µM) | MIC (Klebsiella pneumoniae; K. pneumoniae MMX 4694, KPC-3, Lev^R, MEM^R, CAZ^R): 32 µg/mL (≈ 83.4 µM) | MIC (Klebsiella pneumoniae; K. pneumoniae MMX 5979, NDM-1, Lev^R, MEM^R, CAZ^R, Gm^R): > 64 µg/mL | MIC (S. pneumoniae; ATCC49619, S. pneumoniae MMX 6837 (ATCC 49619), QC): 0.06 µg/mL (≈ 0.156 µM) | MIC (S. pneumoniae; S. pneumoniae MMX 880, Lev^R SXT^R CC^R Ery^R Pen^R): 0.5 µg/mL (≈ 1.3 µM) | MIC (S. pneumoniae; S. pneumoniae MMX 937, Mem^R SXT^R CC^R Ery^R Pen^R): 1 µg/mL (≈ 2.61 µM) | MIC (S. pneumoniae; S. pneumoniae MMX 3959, CC^R Ery^R): 0.03 µg/mL (≈ 0.0782 µM) | MIC (S. pneumoniae; S. pneumoniae MMX 5440, Mem^R SXT^R CC^R Ery^R Pen^R): 1 µg/mL (≈ 2.61 µM) | MIC (S. pneumoniae; S. pneumoniae MMX 5445, Mem^R SXT^R CC^R Ery^R Pen^R): 1 µg/mL (≈ 2.61 µM) | MIC (S. pneumoniae; S. pneumoniae MMX 8133, Mem^R SXT^R CC^R Ery^R Pen^R): 1 µg/mL (≈ 2.61 µM) | MIC (S. agalactiae; S. agalactiae MMX 3741, ERY^R CC^R): 0.03 µg/mL (≈ 0.0782 µM) | MIC (S. agalactiae; S. agalactiae MMX 3743, ERY^R CC^R): 0.06 µg/mL (≈ 0.156 µM) | MIC (S. agalactiae; S. agalactiae MMX 4077, ERY^R CC^R): 0.06 µg/mL (≈ 0.156 µM) | MIC (S. agalactiae; S. agalactiae MMX 4079, ERY^R CC^R Pen^R MEM^R): 8 µg/mL (≈ 20.9 µM) | MIC (S. agalactiae; S. agalactiae MMX 4086, ERY^R CC^R): 0.06 µg/mL (≈ 0.156 µM) | MIC (Escherichia coli; ATCC25922, E. coli MMX 102 (ATCC 25922), QC): 0.03 µg/mL (≈ 0.0782 µM) | MIC (Escherichia coli; ATCCBAA2469, E. coli MMX 5980 (ATCC BAA-2469), NDM-1, Lev^R, MEM^R, CAZ^R, Gm^R): 32 µg/mL (≈ 83.4 µM) | MIC (Escherichia coli; E. coli MMX 8423, ESBL, Lev^R, CAZ^R, Gm^R): 0.03 µg/mL (≈ 0.0782 µM) | MIC (Escherichia coli; E. coli MMX 8424, ESBL, CAZ^R): 0.03 µg/mL (≈ 0.0782 µM) | MIC (Escherichia coli; E. coli MMX 8425, ESBL, Lev^R, CAZ^R, Gm^R): 0.015 µg/mL (≈ 0.0391 µM) | FICB (B. cenocepacia; B. cenocepacia 548): 0.5 and 1 | MICB (B. cenocepacia; B. cenocepacia 548): 2 µg/mL and 4 µg/mL | FICB (B. cenocepacia; B. cenocepacia 813): 0.5 and 1 | MICB (B. cenocepacia; B. cenocepacia 813): 1 µg/mL and 2 µg/mL | MIC (B. cenocepacia; B. cenocepacia 548): 4 µg/mL | MIC (B. cenocepacia; B. cenocepacia 813): 2 µg/mL
